Measured values published in PMC9891166, “Derivatives of 4-methyl-1,2,3-benzoxathiazine 2,2-dioxide as selective inhibitors of human carbonic anhydrases IX and XII over the cytosolic isoforms I and II” (Journal of Enzyme Inhibition and Medicinal Chemistry, 2023).
Like-named read-outs stand apart in the source and are kept apart here.

What was measured:
Assay in all cases: stopped-flow CO2 hydration assay
Assay type in all cases: biochemical
hCA I = biological target: T1, hCA I (Homo sapiens, UniProt P00915); conditions: read-out: KI (nM)^a,b / hCA I
T1 construct: gene CA1; recombinant, obtained in-house as reported earlier; cytosolic
T1 sequence (P00915 2-261): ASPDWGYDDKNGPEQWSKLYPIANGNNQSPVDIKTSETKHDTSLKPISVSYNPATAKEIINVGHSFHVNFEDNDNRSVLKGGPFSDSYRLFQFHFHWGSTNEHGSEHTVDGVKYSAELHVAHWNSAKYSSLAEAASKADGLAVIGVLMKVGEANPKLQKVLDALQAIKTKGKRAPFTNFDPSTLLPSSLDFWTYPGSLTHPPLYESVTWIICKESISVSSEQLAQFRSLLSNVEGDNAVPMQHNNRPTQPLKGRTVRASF
From the text: stopped-flow CO2 hydration assay on hCA I

hCA II [1] = biological target: T2, hCA II (Homo sapiens, UniProt P00918); conditions: read-out: KI (nM)^a,b / hCA II
T2 construct: gene CA2; recombinant, obtained in-house as reported earlier; cytosolic
From the text: stopped-flow CO2 hydration assay on hCA II

hCA II [2] = biological target: T2, hCA II; conditions: read-out: KI (nM)^a,b / hCA I

Compound | Ki (hCA I) | Ki (hCA II [1]) | Ki (hCA II [2])
CC1=NS(=O)(=O)Oc2ccc(Cl)cc21 [2d, 6-Chloro-4-methyl-1,2,3-benzoxathiazine 2,2-dioxide] | 45700 nM | 634 nM | –
CC1=NS(=O)(=O)Oc2cc(-c3ccc(F)cc3)ccc21 [5g, 7–(4-Fluorophenyl)-4-methyl-1,2,3-benzoxathiazine 2,2-dioxide] | > 100000 nM | 5370 nM | –
CC1=NS(=O)(=O)Oc2ccc(F)cc21 [2c, 6-Fluoro-4-methyl-1,2,3-benzoxathiazine 2,2-dioxide] | 12400 nM | 229 nM | –
CC1=NS(=O)(=O)Oc2cc(-c3ccc(Cl)c(Cl)c3)ccc21 [5i, 7–(3,4-Dichlorophenyl)-4-methyl-1,2,3-benzoxathiazine 2,2-dioxide] | > 100000 nM | 10000 nM | –
CC1=NS(=O)(=O)Oc2ccc(-c3ccccc3)cc21 [5a, 4-Methyl-6-phenyl-1,2,3-benzoxathiazine 2,2-dioxide] | 60600 nM | 936 nM | –
CCOC(=O)c1ccc(-c2ccc3c(c2)C(C)=NS(=O)(=O)O3)cc1 [5e, Ethyl 4–(4-methyl-2,2-dioxido-1,2,3-benzoxathiazin-6-yl)benzoate] | 19600 nM | 8250 nM | –
COc1ccc(-c2ccc3c(c2)C(C)=NS(=O)(=O)O3)cc1 [5c, 6–(4-Methoxyphenyl)-4-methyl-1,2,3-benzoxathiazine 2,2-dioxide] | 70500 nM | 7120 nM | –
COc1cccc2c1C(C)=NS(=O)(=O)O2 [2a, 5-Methoxy-4-methyl-1,2,3-benzoxathiazine 2,2-dioxide] | > 100000 nM | – | > 100000 nM
CC1=NS(=O)(=O)Oc2cc(-c3ccccc3)ccc21 [5f, 4-Methyl-7-phenyl-1,2,3-benzoxathiazine 2,2-dioxide] | > 100000 nM | 2360 nM | –
CC1=NS(=O)(=O)Oc2ccc(Br)cc21 [2e, 6-Bromo-4-methyl-1,2,3-benzoxathiazine 2,2-dioxide] | > 100000 nM | 5570 nM | –
COc1ccc2c(c1)OS(=O)(=O)N=C2C [2g, 7-Methoxy-4-methyl-1,2,3-benzoxathiazine 2,2-dioxide] | 24900 nM | 559 nM | –
CC1=NS(=O)(=O)Oc2cc(Cl)ccc21 [2i, 7-Chloro-4-methyl-1,2,3-benzoxathiazine 2,2-dioxide] | 82100 nM | 1660 nM | –
CC1=NS(=O)(=O)Oc2cc(F)ccc21 [2h, 7-Fluoro-4-methyl-1,2,3-benzoxathiazine 2,2-dioxide] | 10500 nM | 284 nM | –
CC1=NS(=O)(=O)Oc2ccc(-c3ccc(F)cc3)cc21 [5b, 6–(4-Fluorophenyl)-4-methyl-1,2,3-benzoxathiazine 2,2-dioxide] | 24500 nM | 1530 nM | –
CC1=NS(=O)(=O)Oc2ccc(C)cc21 [2b, 4,6-Dimethyl-1,2,3-benzoxathiazine 2,2-dioxide] | 21000 nM | 457 nM | –
CC1=NS(=O)(=O)Oc2ccc(-c3ccc(Cl)c(Cl)c3)cc21 [5d, 6–(3,4-Dichlorophenyl)-4-methyl-1,2,3-benzoxathiazine 2,2-dioxide] | > 100000 nM | 4530 nM | –
CCOC(=O)c1ccc(-c2ccc3c(c2)OS(=O)(=O)N=C3C)cc1 [5j, Ethyl 4–(4-methyl-2,2-dioxido-1,2,3-benzoxathiazin-7-yl)benzoate] | > 100000 nM | 6780 nM | –
CC1=NS(=O)(=O)Oc2cc(C)ccc21 [2f, 4,7-Dimethyl-1,2,3-benzoxathiazine 2,2-dioxide] | 33200 nM | 788 nM | –
CC1=NS(=O)(=O)Oc2cc(Br)ccc21 [2j, 7-Bromo-4-methyl-1,2,3-benzoxathiazine 2,2-dioxide] | > 100000 nM | 11500 nM | –
COc1ccc(-c2ccc3c(c2)OS(=O)(=O)N=C3C)cc1 [5h, 7–(4-Methoxyphenyl)-4-methyl-1,2,3-benzoxathiazine 2,2-dioxide] | > 100000 nM | 3170 nM | –
